Measured values published in patent US20100204132A1, “[…] USES OF PEPTIDES […] and […]” (priority 2007, published 2010).
Where no end group is shown, it is not given here.

How the values were obtained:
HIV-1IIIB = experiment: HIV-1 antiviral assay in CEM-SS cells (MTS readout)
[1] = tested on: hepatitis B virus (HBV) ayw strain; experiment: HBV experimental assay system, secreted HBV DNA by TaqMan PCR; assay type: cell-based; details: 10 micrograms per ml; HepG2-2.2.15 cells; six days
Streptococcus pneumoniae = Streptococcus pneumoniae growth assay; assay type: cell-based; details: 10 micrograms per ml; 5×10^5 CFU/mL
murine spleen cells = experiment: Th1/Th2 cytokine profiling assay in Ovalbumin-restimulated spleen cells; assay type: cell-based, Balb/c mice; details: 10 micrograms per ml, Ovalbumin restimulation, 72 hours
[2] = tested on: Primary Human endothelial cells (HUVEC); experiment: Endothelial cell migration assay; assay type: cell-based; details: 10 micrograms per ml, 22 hours
Description: Thereafter, designated concentration of testing peptides—10 micrograms per ml—was added in duplicate wells.

HUVEC = experiment: Endothelial tube formation assay; assay type: cell-based, human; details: 10 micrograms per ml, 20 hours
From the text: […] control wes vehicle only. […] Raw data were expressed as average tubule lenghs in pixels±standard deviation.

HCMV strain AD169 = experiment: HCMV plaque formation assay in MRC-5 cells; assay type: cell-based; details: 10 micrograms per ml, 7-10 days
From the text: Cells were split twic a week 1:2.
Ganciclovir was used as positive control.

Row | Compound | antiviral activity of positive control compounds (HIV-1) (HIV-1IIIB) | inhibition of HBV replication as compared to the virus control infection [1] [%] | inhibition of the growth of Streptococcus pneumoniae (Streptococcus pneumoniae) [%] | change of the production of IFN-γ (murine spleen cells) | change of the production of IL-5 (murine spleen cells) | change of the production of TNF-a (murine spleen cells) | induction (increase) of the production of IL-2 (murine spleen cells) [%] | induction (increase) of the production of IL-4 (murine spleen cells) [%] | increase of the migration of human endothelial cells [2] [%] | inhibition of the tube formation of human endothelial cells (HUVEC) [%] | inhibition of HCMV plaque formation as compared to the virus control (HCMV strain AD169)
1 | Cc1cn([C@H]2C[C@H](N=[N+]=[N-])[C@@H](CO)O2)c(=O)[nH]c1=O [AZT] | expected levels of antiviral activity |  |  |  |  |  |  |  |  |  | 
2 | Tyr-Ser-Ala-Tyr-Pro-Asp-Ser-Val-Pro-Met-Met-Ser-OH [Peptide 1] |  | 51.1 | 100 | did not significantly change | did not significantly change | did not significantly change | 82.2 | 74.3 | 4 | 4 | did not inhibit
3 | CC(C)(C)NC(=O)[C@@H]1CN(Cc2cccnc2)CCN1C[C@@H](O)C[C@@H](Cc1ccccc1)C(=O)N[C@H]1c2ccccc2C[C@H]1O [indinavir] | expected levels of antiviral activity |  |  |  |  |  |  |  |  |  | 
4 | Trp-Met-Asn-Ser-Thr-Gly-Phe-Thr-Lys-Val-Cys-Gly-Ala-Pro-Pro-Cys-OH (WMNSTGFTKVCGAPPC-OH; cysteine pairing not given here) [Peptide 2] |  | 53.2 | 100 | did not significantly change | did not significantly change | did not significantly change | 92.6 | 87.3 | 7 | 8 | did not inhibit
